Square brackets hold non-standard residues; d marks the D form. Peptide text beside a SMILES is read from it. dNva = CCC[C@@H](N)C(=O)O
Assays:
mice [1] = assay: lethality / safety after i.v. or s.c. administration; assay type: in vivo
Experimental: Therefore, the desired route of administration for these compounds is subcutaneous. Thus, the structural paradigm exemplified by BCH1774 can be modified while maintaining exclusion from the central nervous system even at doses as high as 100 mg kg^-1 s.c. and the deleterious i.v. toxicity can be minimized. Thus BCH2463 is not lethal to mice at doses at least as high as 20 mg kg^-1 (i.v.).

mice [2] = assay: hot plate test (central analgesia); assay type: in vivo; conditions: for central analgesic effect: mouse hot plate test, even at doses of 100 mg/kg
From the text: (§1) The term "ED50" as shown in table 1 for the PBQ writhing assays is defined as the dose of drug which induces a 50% reduction in the number of writhes observed compared to the control. The term "ED50" used in the hot-plate assays is defined as the dose of drug required to increase the latency of response 2-fold compared to controls and was determind by parallel-line probit analysis.
(§2) PBQ (phenyl-ρ-benzoquinone) induced writhing in mice is an assessment of both central and peripheral analgesia. For experimental protocol see Sigmund et al., Proc. Soc. Exp. Biol. Med., 95, p. 729 (1957) which is incorporated herein by reference. Central analgesia was determined by the inhibition of a hot plate response in mice. For experimental protocol see G. Woolfe and A. Macdonald, J. Pharmacol. Exp. Ther., 80, p.300 (1944) which is incorporated herein by reference. Assays measuring opioid receptor binding affinities for µ and δ receptors as well as GPI and MVD assays were determined through experimental protocol set out in Schiller et al., Biophys. Res. Commun., 85, p.1322 (1975) incorporated herein by reference.
For this test, CD #1 male mice weighing between 20 and 25g were used. The mice were weighed, marked, and divided into groups of 10.
The mice were usually treated by subcutaneous injection of the compound (or the standard or the medium) in an injection volume equivalent to 0.1 ml/10g p.c. (10ml/kg). If an antagonist such as Nalaxone or N-methyl-Levallorphan was used, it was administered intra-peritoneally 20 minutes before the compound (or the standard, or the medium) was administered. The injection volume was also 0.1 ml/10g p.c. The dose of the antagonist was 10 mg/kg.
The mice were individually evaluated for reaction time on the hot plate. The temperature of the hot plate (Sorel, model DS37) was set at 55°C. […] The mice may be observed at different time intervals after administration of the compound (or medium, or standard). The time intervals may be 30, 60 or 120 minutes (or other).
For each time reading, the average reaction time of the control group was multiplied by 1.5. The reaction time of each treated mouse was compared to the "control average X 1.5.". […] The number of analgesic mice in a group determined the analgesic percentage of the compound for this reading.

mice [3] = assay: PBQ (phenylquinone) induced writhing assay; assay type: in vivo; parameters: ED50 value: unit not given beside the values; conditions: for ED50 value: as shown in Table 1, PBQ writhing, unit not given; for peripheral analgesia: statement in words, writhing compared with hot plate
From the text: as §1, §2
The test was performed on CD #1 male mice weighing between 18 and 22g. The mice were weighed and marked. They were injected, by intra-peritoneal route, with 0.3ml/20g by weight with a solution of phenylquinone at 0.02%. The contortions which appeared during a 15 minute time period following the injection were counted. The phenylquinone was injected at time intervals of 5, 20 or 60 minutes after administration of the compound (or medium, or standard) by subcutaneous route. It was injected at time intervals of 60 minutes after the administration of the compound (or medium, or standard) by oral route;
The 0.02% phenylquinone^3 solution was prepared in the following fashion. 20mg of phenylquinone was dissolved in 5ml ethanol 90% (sigma, reagent, alcohol). The dissolved phenylquinone was slowly added to 95 ml of distilled water continuously shaken and preheated (not boiled). The phenylquinone solution was, at all times protected from light and a new solution was prepared every day for the test. It is recommended to wait 2 hours before using the phenylquinone solution. ** 2-phenyl-1,4-benzoquinone (Sigma)
The test may be carried out on 5 mice at the same time. Each group usually contained 10 mice. If an antagonist, such as naloxone, was used, it was administered 20 minutes before the compound (or the medium, or the standard) by intra-peritoneal route.

[4] = degradation on exposure to brush border kidney membranes; assay type: in vitro ADME; conditions: exposed to brushborder kidney membranes
From the text: Many of the compounds listed in Table 1 show good µ-receptor binding but show weak analgesic effect in the mouse writhing assay. This anomaly may be due to rapid proteolysis, rapid clearence, or both. […] These three compounds are H-Tyr-D-Nva-Phe-Phe-NH2 (BCH2462), H-Tyr-D-Ser-Phe-Phe-NH2 (BCH2463), and H-Tyr-D-Arg-Phe-Phe-NH2 (BCH2687).
The effects of inhibition of proteolytic metabolism of BCH2463 by the inhibitor DL-Thiorphan has been studied and also the metabolic breakdown of BCH2463 mediated by brush border kidney membranes. The data obtained indicate that the kidney may be the principal site of clearance and metabolism for the compound BCH2463. From Figure 2, it appears that the endopeptidase enzyme EC24-11, which is inhibited by DL-thiorphan, is the preliminary mediator of BCH2463 proteolysis by brush border kidney extract.

Structure (SMILES): C[C@@H](NC(=O)[C@@H](N)Cc1ccc(O)cc1)C(=O)N[C@@H](Cc1ccccc1)C(=O)N[C@@H](Cc1ccccc1)C(N)=O [BCH1774, H-Tyr-D-Ala-Phe-Phe-NH2] (H-Y[dA]FF-NH2)
- lethal effects upon mice (mice [1]; 1-5 mg kg^-1 i.v. bolus dose): exhibited lethal effects
- central analgesic effect (mice [2]): lack of analgesic effect
- duration in vivo of analgesic effects (mice [3]; 20 mg/kg s.c. of BCH1774 compared with 30 mg/kg s.c. of BCH2463 (Figure 3)): lasted longer than for BCH2463
- ED50 value (mice [3]): 1.4
- time within which rapidly degraded [4]: 15 to 30 min

Structure (SMILES): CCC[C@@H](NC(=O)[C@@H](N)Cc1ccc(O)cc1)C(=O)N[C@@H](Cc1ccccc1)C(=O)N[C@@H](Cc1ccccc1)C(N)=O [BCH2462, H-Tyr-D-Nva-Phe-Phe-NH2] (H-Y[dNva]FF-NH2)
- lethal effects upon mice (mice [1]; 1-5 mg kg^-1 i.v. bolus dose): exhibited lethal effects
- reaction time (mice [2]; Figs. 1C, 1D, dose not given): approximately 8 seconds
- central analgesic effect (mice [2]): No central analgesic effect was observed
- ED50 value (mice [3]): 2.7
- peripheral analgesia (mice [3]): exhibit peripheral analgesia

Structure (SMILES): NC(=O)[C@H](Cc1ccccc1)NC(=O)[C@H](Cc1ccccc1)NC(=O)[C@@H](CO)NC(=O)[C@@H](N)Cc1ccc(O)cc1 [BCH2463, H-Tyr-D-Ser-Phe-Phe-NH2] (H-Y[dS]FF-NH2)
- lethal effects upon mice (mice [1]; doses up to 20 mg kg^-1 i.v.): did not exhibit any lethal effects
- reaction time (mice [2]; mice treated with 100 mg/kg (Fig 1B), control approximately 7 seconds): about 9 seconds
- central analgesic effect (mice [2]): No central analgesic effect was observed
- ED50 value (mice [3]): 0.5
- ED50 (mice [3]; mouse s.c., at 20 minutes post administration (Figure 2)): 0.5 mg/kg
- peripheral analgesia (mice [3]): exhibit peripheral analgesia

Structure (SMILES): N=C(N)NCCC[C@@H](NC(=O)[C@@H](N)Cc1ccc(O)cc1)C(=O)N[C@@H](Cc1ccccc1)C(=O)N[C@@H](Cc1ccccc1)C(N)=O [BCH2687, H-Tyr-D-Arg-Phe-Phe-NH2] (H-Y[dR]FF-NH2)
- reaction time (mice [2]; Figs. 1C, 1D, dose not given): approximately 8 seconds
- central analgesic effect (mice [2]): No central analgesic effect was observed
- ED50 value (mice [3]): 0.5
- peripheral analgesia (mice [3]): exhibit peripheral analgesia
